# Assays:
# human TLR4 = molecular target: T1, human TLR4 (Homo sapiens, UniProt O00206+Q9Y6Y9); assay: Human TLR4 NFκB SEAP reporter gene assay in hTLR4-transfected HEK293 cells; format: cell-based; settings: NFκB SEAP reporter, hTLR4-transfected HEK293 cells, 20 h; read-out: Human TLR4 pEC50 (converted)
# T1 construct: expressed in transfected cells; host or cells: HEK293 with stably integrated pNiFty2-SEAP reporter
# Description: (§1) HEK293 cells stably transfected with pNiFty2-SEAP reporter plasmid were transiently transfected with either human or mouse TLR4 (pUNO expression vector), in combination with either human or mouse CD14/MD2 (pDUO expression vector). Transient transfectants were seeded in Dulbecco’s Modified Eagle Medium, FCS 10% (v/v), 2 mM l glutamine and non-essential amino acids. Cells were seeded in tissue culture treated clear flat bottom polystyrene 96 well plates (Costar, 3598) at 1e4 cells/well. Concentration-response curves were generated by addition of test compounds and incubation for 20 h at 37°C in an atmosphere of 5% CO2. LPS (E. coli 0111:B4, Ultra-pure, Invivogen) or PHAD (Avanti Polar Lipids) was used as a positive control. The SEAP released was quantified using p nitrophenyl phosphate as a substrate, and the absorbance at 405 nm was measured at 30 second intervals over several minutes using a microplate reader. Some data are recorded as the pEC50, the negative log of the EC50 value. Other data generated from these reporter cell lines were converted to AUC (area under the curve) values by interpolation of fitted cubic spline curve between OD value and log concentration levels. The calculation is performed using MESS package in statistical software R (www.r-project.org/).
# mouse TLR4/MD2 = molecular target: T2, mouse TLR4/MD2 (Mus musculus, UniProt Q9JHF9+Q9QUK6); assay: mTLR4/MD2-HEK293 transfectant SEAP (QUANTI-Blue) dose response, AUC; format: cell-based; settings: 1 μg/ml to 4 ng/ml, 24 h, SEAP OD 650 nm vs log concentration
# T2 construct: host or cells: HEK293
# T2 sequence (Q9QUK6 26-835): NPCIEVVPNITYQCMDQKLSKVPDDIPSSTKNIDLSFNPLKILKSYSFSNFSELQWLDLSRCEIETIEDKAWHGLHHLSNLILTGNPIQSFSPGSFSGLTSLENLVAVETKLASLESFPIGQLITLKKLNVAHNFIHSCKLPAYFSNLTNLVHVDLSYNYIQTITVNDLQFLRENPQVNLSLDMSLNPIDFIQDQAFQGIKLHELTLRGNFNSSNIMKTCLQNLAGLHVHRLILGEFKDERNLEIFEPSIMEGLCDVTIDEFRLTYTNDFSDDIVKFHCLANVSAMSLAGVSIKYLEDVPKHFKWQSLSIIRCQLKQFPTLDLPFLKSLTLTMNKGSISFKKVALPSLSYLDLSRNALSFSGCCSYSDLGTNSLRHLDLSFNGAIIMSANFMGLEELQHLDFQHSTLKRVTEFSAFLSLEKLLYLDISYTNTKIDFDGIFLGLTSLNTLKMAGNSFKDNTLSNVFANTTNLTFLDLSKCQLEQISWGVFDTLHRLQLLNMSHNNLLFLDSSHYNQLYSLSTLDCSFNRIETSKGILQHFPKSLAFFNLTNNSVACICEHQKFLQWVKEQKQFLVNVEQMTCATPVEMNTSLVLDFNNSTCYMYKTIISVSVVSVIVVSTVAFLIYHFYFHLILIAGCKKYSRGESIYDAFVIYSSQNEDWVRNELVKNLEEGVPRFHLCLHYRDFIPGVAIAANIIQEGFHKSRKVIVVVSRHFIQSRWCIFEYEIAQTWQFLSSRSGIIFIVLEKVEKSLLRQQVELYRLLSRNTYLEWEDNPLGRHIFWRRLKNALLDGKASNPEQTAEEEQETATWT
# T2 sequence (Q9JHF9 19-160): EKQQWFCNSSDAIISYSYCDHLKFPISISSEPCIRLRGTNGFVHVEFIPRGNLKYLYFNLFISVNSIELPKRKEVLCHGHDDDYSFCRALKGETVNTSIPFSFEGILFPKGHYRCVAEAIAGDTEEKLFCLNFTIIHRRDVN
# Description: as §1, with “Cells” for “HEK293 cells stably transfected with pNiFty2-SEAP reporter plasmid were transiently transfected with either human or mouse TLR4 (pUNO expression vector), in combination with either human or mouse CD14/MD2 (pDUO expression vector). Transient transfectants were seeded in Dulbecco’s Modified Eagle Medium, FCS 10% (v/v), 2 mM l glutamine and non-essential amino acids. Cells”
# Fig 4 Ugi compounds preferentially activate TLR4-HEK transfectants expressing human MD2. A-B) HEK293 cells transfected with human TLR4/MD2 or mouse TLR4/MD2 (InVivogen) were stimulated with TLR4 agonists including MPL, PHAD, and Ugi compounds at 1 μg/ml to 4 ng/ml and with LPS at 25 ng/ml to 64 pg/ml for 24 h. SNs were analyzed for SEAP content by the QUANTI-Blue assay (InVivogen) and analysis at 650 nm by spectrophotometer. AUC (area under the curve) values were calculated as in Methods. No AUC value was calculated for LPS since it was utilized with a different dose range. C) HEK transfectants with cis- or trans-species expression of TLR4, MD2, and CD14 were stimulated with Ugi compounds in a dose response range of 9 μM to 1 nM or with LPS (boxes) at 75 ng/ml to 5 pg/ml for 48 h. Data was obtained as Vmax calculated over the initial linear portion of the kinetic absorbance measurements. The AUC (area under the curve) value for the dose response curve of Vmax vs log10 (molar units) was calculated for each compound using Trapezoidal rule. TEXT PRINTED IN THE PICTURE: (A) MPL: hTLR4-HEK AUC: 0.55 | (A) AZ617: hTLR4-HEK AUC: 5.90 | (A) AZ618: hTLR4-HEK AUC: 6.56 | (A) AZ839: hTLR4-HEK AUC: 6.00 | (A) AZ161: hTLR4-HEK AUC: 5.54 | (A) AZ902: hTLR4-HEK AUC: 7.04 | (A) GLA: hTLR4-HEK AUC: 3.75 | (B) MPL: mTLR4-HEK AUC: 13.27 | (B) AZ617: mTLR4-HEK AUC: 0.89 | (B) AZ618: mTLR4-HEK AUC: 1.03 | (B) AZ839: mTLR4-HEK AUC: 0.93 | (B) AZ161: mTLR4-HEK AUC: 0.99 | (B) AZ902: mTLR4-HEK AUC: 1.55 | (B) GLA: mTLR4-HEK AUC: 14.24
# T1 sequence (O00206 24-839): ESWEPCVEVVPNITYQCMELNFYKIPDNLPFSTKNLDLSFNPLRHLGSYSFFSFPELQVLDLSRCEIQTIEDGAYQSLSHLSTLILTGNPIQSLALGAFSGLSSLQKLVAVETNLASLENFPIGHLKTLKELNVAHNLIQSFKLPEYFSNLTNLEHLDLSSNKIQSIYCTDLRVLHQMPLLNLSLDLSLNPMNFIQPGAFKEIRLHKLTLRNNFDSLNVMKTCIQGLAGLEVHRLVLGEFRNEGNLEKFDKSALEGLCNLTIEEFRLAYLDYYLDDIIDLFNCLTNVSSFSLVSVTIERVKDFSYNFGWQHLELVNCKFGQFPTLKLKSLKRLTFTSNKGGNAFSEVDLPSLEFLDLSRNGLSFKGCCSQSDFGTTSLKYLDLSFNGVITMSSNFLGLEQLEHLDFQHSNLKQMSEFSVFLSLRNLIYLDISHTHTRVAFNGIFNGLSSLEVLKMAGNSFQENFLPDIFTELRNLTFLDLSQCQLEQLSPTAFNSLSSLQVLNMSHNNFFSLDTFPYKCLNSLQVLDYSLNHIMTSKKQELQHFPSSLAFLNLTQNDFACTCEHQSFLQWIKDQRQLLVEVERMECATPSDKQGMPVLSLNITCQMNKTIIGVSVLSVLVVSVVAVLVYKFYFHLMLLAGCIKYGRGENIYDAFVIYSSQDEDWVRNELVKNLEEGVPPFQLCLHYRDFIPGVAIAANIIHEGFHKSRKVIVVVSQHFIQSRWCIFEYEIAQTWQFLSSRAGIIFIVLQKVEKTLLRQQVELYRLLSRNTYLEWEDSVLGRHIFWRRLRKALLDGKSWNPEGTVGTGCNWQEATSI
# T1 sequence (Q9Y6Y9 19-160): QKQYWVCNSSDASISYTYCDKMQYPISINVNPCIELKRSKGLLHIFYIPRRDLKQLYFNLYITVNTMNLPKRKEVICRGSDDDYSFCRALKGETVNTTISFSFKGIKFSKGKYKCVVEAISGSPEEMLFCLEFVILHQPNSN
EC50 (human TLR4) [nM],mTLR4-HEK AUC (mouse TLR4/MD2),SMILES
6.31,1.55,CC(C)(C)c1ccc(N(C(=O)c2cc(-c3ccccc3)n(-c3ccccc3)n2)C(C(=O)NC2CCCC2)c2ccc(CC(=O)O)cc2)cc1 (centres unmarked) [AZ902]
5.01,0.89,O=C(O)Cc1ccc(C(C(=O)NC2CCCC2)N(C(=O)c2cc(-c3ccccc3)n(-c3ccccc3)n2)c2ccc3c(c2)CCC3)cc1 (centres unmarked) [AZ617]
20,1.03,"Cc1cc(C)cc(N(C(=O)c2cc(-c3ccccc3)n(-c3ccccc3)n2)C(C(=O)NC2CCCC2)c2ccc(CC(=O)O)cc2)c1 (centres unmarked) [AZ618, 2-(4-(2-(cyclopentylamino)-1-(N-(3,5-dimethylphenyl)-1,5-diphenyl-1H-pyrazole-3-carboxamido)-2-oxoethyl)phenyl)acetic acid]"
20,0.99,Cc1ccc(N(C(=O)c2cc(-c3ccccc3)n(-c3ccccc3)n2)C(C(=O)NC2CCCC2)c2ccc(CC(=O)O)cc2)cc1Cl (centres unmarked) [AZ161]
